Measured values published in patent US7259155B2, “Phosphonic diester derivatives” (Otsuka Pharmaceutical Factory, Inc., priority 2004, dated 2007).

Target: T1, ACAT-1 (Homo sapiens, UniProt P35610)
T1 construct: To 2.6 ml of broken homogenate having a protein concentration of 2.5 mg/ml was added 0.65 ml of 5×DOC/PC; endogenous in cells; host or cells: SW-13 cells (human adrenal cortical adenocarcinoma); broken homogenate solubilised with deoxycholate/PC and reconstituted into cholesterol/PC vesicles
T1 sequence (P35610 1-550): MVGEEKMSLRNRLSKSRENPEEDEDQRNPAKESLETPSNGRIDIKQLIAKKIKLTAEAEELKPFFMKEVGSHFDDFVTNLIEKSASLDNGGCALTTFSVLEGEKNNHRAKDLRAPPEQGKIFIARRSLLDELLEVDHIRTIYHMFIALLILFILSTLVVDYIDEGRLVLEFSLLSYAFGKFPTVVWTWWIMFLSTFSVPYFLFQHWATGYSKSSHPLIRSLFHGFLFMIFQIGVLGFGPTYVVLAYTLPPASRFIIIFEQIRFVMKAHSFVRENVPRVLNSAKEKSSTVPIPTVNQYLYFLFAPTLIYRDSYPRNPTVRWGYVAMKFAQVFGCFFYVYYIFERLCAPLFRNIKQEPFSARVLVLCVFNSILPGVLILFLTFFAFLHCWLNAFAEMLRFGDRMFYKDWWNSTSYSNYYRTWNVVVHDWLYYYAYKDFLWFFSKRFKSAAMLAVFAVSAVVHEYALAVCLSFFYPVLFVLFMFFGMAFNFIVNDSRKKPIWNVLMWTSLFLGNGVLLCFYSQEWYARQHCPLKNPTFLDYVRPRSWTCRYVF
Test: ACAT-1 Inhibitory Action Test 1 (reconstituted vesicle assay, enzyme solution from SW-13 cell broken homogenate)
Format: biochemical
Conditions: test substance 1×10^−3 mol/l in DMSO, 2.5 μl added to 200 μl enzyme solution + 50 μl substrate solution; 37° C., 30 minutes; decrease in total cholesterol ester vs DMSO control
Procedure: SW-13 cells (derived from human adrenal cortical adenocarcinoma) were cultured on a culture plate until confluence in an L-15 culture medium containing 10% fetal bovine serum (FBS) in a carbon dioxide incubator.
Broken homogenates were collected according to a published procedure (hypotonic shock and scrapping method, Anal. Biochem., 116, 298–302 (1981)), subjected to protein quantitation (Bradford method), and stored at −80° C. till use.
Chol/PC vesicles (Chol/PC=3.9 mM/12.8 mM) were prepared according to a method described by Chang et al. (Chang, T. Y. et al., Anal. Biochem., 157, 323–330 (1986)). […]
With respect to the hexane phase in the glass test tube, the solvent was removed under a nitrogen gas stream. […] Using a bio-imaging analyzer (BAS-2000II, manufactured by Fuji Photo Film Co., Ltd.), the ^14C of the cholesterol ester fraction was quantified.
With respect to the hexane phase in the scintillation vial, ^3H was counted after adding a scintillation cocktail. Based on the amount of ^3H in the [^3H]-cholesteryl oleate-containing ethanol, the extraction efficiency was calculated. Based on the extraction efficiency, the amount of total cholesterol ester produced was calculated. In comparison with the control, decrease in the amount of the total cholesterol ester produced when a test substance was used was expressed as ACAT-1 enzyme inhibition (%).

In the case of “diethyl 4-(7-chloro-3-N-(4-methyl -benzylideneamin)-4(3H)-quinazolinon-2-yl)benzylphosphonate [Example 1]”, the “ACAT-1 enzyme inhibition (%)” value is reported as 75%.
